Results: PubChem BioAssay (NCI)
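48-hour exposure; five concentrations; linearly interpolated endpoints. GI50: concentration for 50% inhibition of growth. TGI is the concentration that stops growth completely.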

Tests used:
Test in all cases: inhibition of tumour cell growth, NCI panel, 48 h
SK-MEL-28 melanoma = tested on: SK-MEL-28 melanoma
OVCAR-8 ovarian = tested on: OVCAR-8 ovarian
SF-295 CNS = tested on: SF-295 CNS
SK-MEL-2 melanoma = tested on: SK-MEL-2 melanoma
ACHN renal = tested on: ACHN renal
OVCAR-4 ovarian = tested on: OVCAR-4 ovarian
UACC-257 melanoma = tested on: UACC-257 melanoma
UO-31 renal = tested on: UO-31 renal
HOP-92 NSCLC = tested on: HOP-92 NSCLC
MDA-MB-435 = tested on: MDA-MB-435

| SMILES | TGI (SK-MEL-28 melanoma) [µM] | TGI (OVCAR-8 ovarian) [µM] | TGI (SF-295 CNS) [µM] | TGI (SK-MEL-2 melanoma) [µM] | TGI (ACHN renal) [µM] | TGI (OVCAR-4 ovarian) [µM] | TGI (UACC-257 melanoma) [µM] | TGI (UO-31 renal) [µM] | TGI (HOP-92 NSCLC) [µM] | GI50 (UACC-257 melanoma) [µM] | TGI (MDA-MB-435) [µM] |
| --- | --- | --- | --- | --- | --- | --- | --- | --- | --- | --- | --- |
| Cc1nc2ccccc2nc1NS(=O)(=O)c1ccc(N)cc1 | > 100 | > 100 | > 100 | > 100 | > 100 | > 100 | > 100 | > 100 | > 100 |  |  |
| O=S(=O)(CC1=NC2C=CC=CC2N=C1)NCc1ccccc1 (configuration not stated) | > 100 | > 100 | > 100 | > 100 | > 100 | > 100 |  |  | > 100 |  |  |
| O=C1/C(=C/c2cccc([N+](=O)[O-])c2)COc2ccccc21 | 7.42 | 9.19 | > 94.5 | 20 | 8.04 | 6.28 | > 64.7 | 67.8 | > 72.8 |  |  |
| Cc1ccc(S(=O)(=O)N/N=C2\C(=O)C3CC2C(Cl)C3Cl)cc1 (configuration not stated) | > 100 | > 100 | > 100 |  | > 100 | > 100 | > 100 | > 100 | > 100 |  |  |
| COc1ccc2c(c1)c(Cc1c(C)n(C)c3ccc(OC)cc13)c(C)n2C | > 100 | > 100 | > 100 | > 100 | > 100 | > 100 | > 100 | > 100 | > 100 |  |  |
| CCc1cc(Cc2cc(CC)c(NC(=O)C3=CC(=O)CC(c4ccc(OC)cc4)O3)c(CC)c2Cl)c(Cl)c(CC)c1NC(=O)C1=CC(=O)CC(c2ccc(OC)cc2)O1 (configuration not stated) | 41.4 | 90.5 | 38.7 | 36.7 | 32.1 | 54.8 | 36.8 | 30.8 | 39.7 |  |  |
| c1ccc(C2=NN(c3ccccc3)C3(S2)SC(c2ccccc2)(c2ccccc2)c2ccccc23)cc1 (configuration not stated) | > 100 | > 100 | > 100 | > 100 | > 100 | > 100 | > 100 | > 100 | > 100 |  |  |
| O=c1c2cc(I)ccc2nc(-c2cccs2)n1Nc1ccccc1 | > 100 | > 100 | 32.9 | 1.63 | > 100 | > 100 | > 100 | > 100 |  | 32.3 | > 100 |
| CCOc1ccc(NCC(=O)N2CC(=O)Nc3ccccc32)cc1 | > 100 | > 100 | > 100 | > 100 | > 100 | > 100 | > 100 | > 100 | > 100 |  |  |
| C1=CCN(c2ccccc2)CC1 | 73.9 | 81.2 | > 100 | > 100 | 56.8 |  | > 100 | > 100 | 61.6 |  |  |
| Nc1ccc(N=Nc2ccc(/C=C/c3ccc(N=Nc4ccc(N)c5ccc(S(=O)(=O)O)cc45)cc3S(=O)(=O)O)c(S(=O)(=O)O)c2)c2cc(S(=O)(=O)O)ccc12 | > 100 | > 100 | > 100 | > 100 |  | > 100 | > 100 | > 100 | > 100 |  |  |
| COc1ccc2c(OC)c3ccoc3nc2c1O | > 100 | > 100 | > 100 | > 100 | > 100 | > 100 | > 100 | > 100 |  |  |  |
| O=C(CCN(CCO)CCO)Nc1ccc2c(c1)C(=O)c1ccc(NC(=O)CCN(CCO)CCO)cc1C2=O | 62.6 | > 100 | > 100 | 16.8 | > 100 | > 100 | > 100 | 22.1 | > 100 |  |  |
| CCCCOC(=O)/C(CC(=O)C=C(C)C)=N\NS(=O)(=O)c1ccc(C)cc1 | > 100 | > 100 | > 100 | > 100 | > 100 | > 100 | > 100 | > 100 | > 100 |  |  |
| CC(=O)Nc1ccc(-c2nnc(SCC(=O)Nc3ccccc3Cl)o2)cc1 | > 100 | > 100 | > 100 | > 100 | > 100 | > 100 | > 100 | > 100 |  |  |  |
| CC(=O)OC1[C@H]2c3cc4c(cc3CN3CCC(C[C@@H]1OC(C)=O)C23)OCO4 (some centres not stated) | > 75 | > 75 | > 75 |  | > 75 |  | > 75 | > 75 |  |  |  |
| CCOC(=O)[C@H]1C[C@@H](C(=O)c2ccccc2)N2N=C(c3ccc(Br)cc3)C=C[C@H]12 | > 100 | > 100 | > 100 | > 100 | > 100 | > 100 | > 100 | > 100 |  |  | > 100 |
| CCN(CC)CCCCC1CCN(CC(=O)N2c3ccccc3NC(=O)c3ccccc32)CC1 | > 100 | > 100 | > 100 | > 100 |  | > 100 | > 100 | > 100 | > 100 |  |  |
